Lipid-soluble radioactivity, Distribution of radioactivity and Radioactivity data for 5 molecules are collected here from ChEMBL document CHEMBL1128242, “Polyiodinated triglyceride analogs as potential computed tomography imaging agents for the liver” (J Med Chem, 1995).

Each structure is given as a SMILES string.

Data set [1] deals with Rattus norvegicus. In words: Analysis of lipid-soluble radioactivity in liver 24 hour after iv administration of [125I]-labeled 2-Oleoyl 1,3-disubstituted Triacylglycerols expressed as %parent compound (by TLC with authentic [125I]-labeled standard) from rat. It counts as ADME, organism-based. The settings on record: in vivo.
The subject of data set [2] is Rattus norvegicus. In words: Distribution of radioactivity was determined in spleen at 3h after intravenous administration of 1,3-Disubstituted Triacylglycerols in rats. It counts as ADME, organism-based. The settings on record: in vivo.
Data set [3] has as its system Rattus norvegicus. Nature of the data set: Distribution of radioactivity was determined in liver at 3h after intravenous administration of 1,3-Disubstituted Triacylglycerols in rats. It counts as ADME, organism-based. The settings on record: in vivo.
Data set [4] concerns Rattus norvegicus. Nature of the data set: Distribution of radioactivity was determined in thyroid at 3h after intravenous administration of [125I]-labeled 2-oleoglycerol 1,3-Bis-[omega-(3-amino-2,4,6-triiodophenyl)alkanoates] in rats. The format is ADME, organism-based, Thyroid gland. The settings on record: in vivo.
Data set [5] relates to Rattus norvegicus. In words: Distribution of radioactivity was determined in spleen at 3h after intravenous administration of [125I]-labeled 2-oleoglycerol 1,3-Bis-[omega-(3-amino-2,4,6-triiodophenyl)alkanoates] in rats. Conditions: in vivo. The format is ADME, organism-based.
Data set [6] deals with Rattus norvegicus. Nature of the data set: Analysis of lipid-soluble radioactivity in liver 0.5 hour after iv administration of [125I]-labeled 2-Oleoyl 1,3-disubstituted Triacylglycerols expressed as %parent compound (by TLC with authentic [125I]-labeled standard) from rat. It counts as ADME, organism-based. Conditions: in vivo.
The test system of data set [7] is Rattus norvegicus. In words: Polyacrylamide Gel Electrophoresis (PAGE) to determined the concentration of low density lipoprotein (LDL) in rats after iv administration of [125I]-labeled 2-Oleolyl 1,3-disubstituted triglycerols was reported. It counts as ADME, organism-based. Conditions: in vivo.
Data set [8] deals with Rattus norvegicus. Nature of the data set: Distribution of radioactivity was determined in spleen at 48 hr after intravenous administration of 1,3-Disubstituted Triacylglycerols in rats. It counts as ADME, organism-based. Conditions: in vivo.
Data set [9] relates to Rattus norvegicus. Nature of the data set: Distribution of radioactivity was determined in heart at 30 min after intravenous administration of [125I]-labeled 2-oleoglycerol 1,3-Bis-[omega-(3-amino-2,4,6-triiodophenyl)alkanoates] in rats. The format is ADME, organism-based. The settings on record: in vivo, 0.5 h.
For data set [10], the system named is Rattus norvegicus. Nature of the data set: Distribution of radioactivity was determined in blood at 24 hr after intravenous administration of [125I]-labeled 2-oleoglycerol 1,3-Bis-[omega-(3-amino-2,4,6-triiodophenyl)alkanoates] in rats. The format is ADME, organism-based. The settings on record: in vivo.
Data set [11] relates to Rattus norvegicus. Nature of the data set: Distribution of radioactivity was determined in blood at 30 min after intravenous administration of [125I]-labeled 2-oleoglycerol 1,3-Bis-[omega-(3-amino-2,4,6-triiodophenyl)alkanoates] in rats. The format is ADME, organism-based. Conditions: in vivo, 0.5 h.
Data set [12] has as its system Rattus norvegicus. In words: Distribution of radioactivity was determined in kidney at 30 min after intravenous administration of [125I]-labeled 2-oleoglycerol 1,3-Bis-[omega-(3-amino-2,4,6-triiodophenyl)alkanoates] in rats. The format is ADME, organism-based. Conditions: in vivo, 0.5 h.
Data set [13] relates to Rattus norvegicus. In words: Distribution of radioactivity was determined in plasma at 24 hr after intravenous administration of [125I]-labeled 2-oleoglycerol 1,3-Bis-[omega-(3-amino-2,4,6-triiodophenyl)alkanoates] in rats. It counts as ADME, organism-based. Also on record: unit not given here. Conditions: in vivo.

With `CCCCCCCC/C=C/CCCCCCCC(=O)OC(COC(=O)CCCCCCc1c(I)cc(I)c(N)c1I)COC(=O)CCCCCCc1c(I)cc(I)c(N)c1I`, the Lipid-soluble radioactivity is on record as 0 in the data set with Rattus norvegicus [1] and 91.9 in the data set on Rattus norvegicus [6]. For the same molecule, the Distribution of radioactivity amounted to 8.2 % dose/organ with Rattus norvegicus [2]; 45.8 % dose/organ with Rattus norvegicus [3]; 1.69 % dose/g in the data set on Rattus norvegicus [4]; 15.3 % dose/g with Rattus norvegicus [5]; 0.3 % dose per organ with Rattus norvegicus [8]; 0.55 % dose/g in the data set with Rattus norvegicus [9]. The Distribution of radioactivity in the data set on Rattus norvegicus [10] came out at 0.22 % dose/g; in the data set with Rattus norvegicus [11], 0.59 % dose/g; with Rattus norvegicus [12], 0.2 % dose/g; with Rattus norvegicus [13], 0.21. For the same molecule, in the data set with Rattus norvegicus [7], the Radioactivity is 0.2%.
In the case of `CCCCCCCC/C=C/CCCCCCCC(=O)OC(COC(=O)Cc1c(I)cc(I)c(N)c1I)COC(=O)Cc1c(I)cc(I)c(N)c1I`, the results for the Lipid-soluble radioactivity with Rattus norvegicus [1] and in the data set on Rattus norvegicus [6] were 87.5 and 85.1, respectively. For the same molecule, the Distribution of radioactivity in the data set on Rattus norvegicus [2] is 14.5 % dose/organ; in the data set on Rattus norvegicus [3] it was 79 % dose/organ; with Rattus norvegicus [4], 0.27 % dose/g; in the data set with Rattus norvegicus [5] it was 23.6 % dose/g; in the data set on Rattus norvegicus [8], 16.6 % dose per organ; in the data set with Rattus norvegicus [9] it was 0.36 % dose/g. For the same molecule, the Distribution of radioactivity with Rattus norvegicus [10] was found to be 0.01 % dose/g; in the data set with Rattus norvegicus [11], 0.69 % dose/g; in the data set on Rattus norvegicus [12] it was 0.1 % dose/g; in the data set with Rattus norvegicus [13], 0.01. Moreover, in the data set on Rattus norvegicus [7], the Radioactivity came out at 0.6%.
For the molecule `CCCCCCCC/C=C/CCCCCCCC(=O)OC(COC(=O)CCCCCc1c(I)cc(I)c(N)c1I)COC(=O)CCCCCc1c(I)cc(I)c(N)c1I`, the results for the Lipid-soluble radioactivity in the data set on Rattus norvegicus [1] and with Rattus norvegicus [6] were 97.9 and 96.8, respectively. Also, the Distribution of radioactivity with Rattus norvegicus [2] was 11.3 % dose/organ; in the data set on Rattus norvegicus [3], 66 % dose/organ; in the data set with Rattus norvegicus [4], 0.91 % dose/g; with Rattus norvegicus [5] it was 23.5 % dose/g; in the data set with Rattus norvegicus [8] it was 3.1 % dose per organ; in the data set on Rattus norvegicus [9], 0.23 % dose/g. The Distribution of radioactivity in the data set with Rattus norvegicus [10] was 0.1 % dose/g; in the data set on Rattus norvegicus [11], 0.38 % dose/g; with Rattus norvegicus [12], 0.09 % dose/g; in the data set on Rattus norvegicus [13], 0.14. For the same molecule, the Radioactivity in the data set with Rattus norvegicus [7] is recorded as 4.8%.
In the case of `CCCCCCCC/C=C/CCCCCCCC(=O)OC(COC(=O)CCCCc1c(I)cc(I)c(N)c1I)COC(=O)CCCCc1c(I)cc(I)c(N)c1I`, the Lipid-soluble radioactivity in the data set on Rattus norvegicus [1] is 86.5; with Rattus norvegicus [6], 98.9. For the same molecule, the Distribution of radioactivity in the data set on Rattus norvegicus [2] is 8 % dose/organ; in the data set on Rattus norvegicus [3] it was 60.7 % dose/organ; in the data set with Rattus norvegicus [4], 1.16 % dose/g; with Rattus norvegicus [5] it was 14.5 % dose/g; with Rattus norvegicus [8], 3.7 % dose per organ; in the data set with Rattus norvegicus [9], 0.59 % dose/g. The Distribution of radioactivity in the data set on Rattus norvegicus [10] stood at 0.14 % dose/g; with Rattus norvegicus [11], 0.08 % dose/g; in the data set with Rattus norvegicus [12] it was 0.05 % dose/g; in the data set with Rattus norvegicus [13] it was 0.14. Besides, the Radioactivity in the data set on Rattus norvegicus [7] is reported as 8.1%.
As to `CCCCCCCC/C=C/CCCCCCCC(=O)OC(COC(=O)C(CC)Cc1c(I)cc(I)c(N)c1I)COC(=O)C(CC)Cc1c(I)cc(I)c(N)c1I` (stereo not given), the Lipid-soluble radioactivity in the data set on Rattus norvegicus [1] was determined as 64.7; in the data set on Rattus norvegicus [6], 78.6. In addition, the Distribution of radioactivity came out at 11.3 % dose/organ in the data set on Rattus norvegicus [2]; 80 % dose/organ in the data set on Rattus norvegicus [3]; 5.08 % dose/g in the data set with Rattus norvegicus [4]; 17.7 % dose/g in the data set with Rattus norvegicus [5]; 9.8 % dose per organ with Rattus norvegicus [8]; 0.84 % dose/g with Rattus norvegicus [9]. Further, the Distribution of radioactivity with Rattus norvegicus [10] was 0.01 % dose/g; in the data set with Rattus norvegicus [11], 0.26 % dose/g; in the data set with Rattus norvegicus [12], 0.07 % dose/g; in the data set with Rattus norvegicus [13], 0.01. In addition, the Radioactivity with Rattus norvegicus [7] turned out to be 7.4%.
